Patent US20070213303A1, “Methods for reducing platelet activation and for the treatment of thrombotic events” (priority 2005, published 2007)

How the values were obtained:
Format in all cases: cell-based, human
[1] = system: platelets; assay: Conventional platelet aggregation induced by collagen
Description: Trisodium citrate (3.8%) and whole blood is immediately mixed in a 1:9 ratio, and then centrifuged at 1200 g for 2.5 minutes, to obtain platelet-rich plasma (PRP), which is kept at room temperature for use within 1 hour for platelet aggregation studies. Platelet count is determined in each PRP sample with a Coulter Counter ZM (Coulter Co., Hialeah, Fla.). Platelet numbers are adjusted to 3.50×10^8/ml for aggregation with homologous platelet-poor plasma. PRP and whole blood aggregation tests are performed simultaneously. Whole blood is diluted 1:1 with the 0.5 ml PBS, and then swirled gently to mix. The cuvette with the stirring bar is placed in the incubation well and allowed to warm to 37° C. for 5 minutes. Then the samples are transferred to the assay well. An electrode is placed in the sample cuvette. […] All agonists are obtained, e.g., from Chronolog Corporation (Hawertown, Pa.). Platelet aggregation studies are performed using a Chrono-Log Whole Blood Lumi-Aggregometer (model 560-Ca). Platelet aggregability is expressed as the percentage of light transmittance change from baseline using platelet-poor plasma as a reference at the end of recording time for plasma samples, or as a change in electrical impedance for whole blood samples. Aggregation curves are recorded for 4 minutes and analyzed according to internationally established standards using Aggrolink® software.
The effect of doses (15 μg/ml to 90 μg/ml) of Compound A on in vitro platelet characteristics in subjects with multiple factors for vascular disease was tested.
The in vitro effects of pre-incubation with escalating concentrations of Compound A on platelet aggregation, and expression of major surface receptors by flow cytometry, were assessed in 20 aspirin naïve volunteers with multiple risk factors for vascular disease.

[2] = system: PAR-1 (SPAN-12); assay: Flow cytometry, PAR-1 thrombin receptor expression (SPAN-12)
Description: (§1) Venous blood (8 ml) is collected in a plastic tube containing 2 ml of acid-citrate-dextrose (ACD) (7.3 g citric acid, 22.0 g sodium citrate.2H2O and 24.5 glucose in 1000 ml distilled water) and mixed well. The blood-ACD mixture is centrifuged at 1000 r.p.m. for 10 minutes at room temperature. The upper ⅔ of the platelet-rich plasma (PRP) is then collected and adjusted to pH=6.5 by adding ACD. The PRP is then centrifuged at 3000 r.p.m. for 10 minutes. The supernatant is removed and the platelet pellet is gently resuspended in 4 cc of the washing buffer (10 mM Tris/HCl, 0.15 M NaCl, 20 mM EDTA, pH=7.4). Platelets are washed in the washing buffer, and in TBS (10 mM Tris, 0.15 M NaCl, pH=7.4). All cells are then divided into the appropriate number of tubes. By way of example, if 9 different surface markers are evaluated, as described herein, then the cells should be divided into ten tubes, such that nine tubes containing washed platelets are incubated with 5 μl fluorescein isothiocyanate (FITC)-conjugated antibodies in the dark at +4° C. for 30 minutes, and one tube remains unstained and serves as a negative control. Surface antigen expression is measured with monoclonal murine anti-human antibodies, such as CD9 (p24); CD41a (IIb/IIIa, aIIbb3); CD42b (Ib); CD61(IIIa) (DAKO Corporation, Carpinteria, Calif.); CD49b (VLA-2, or a2b1); CD62p (P-selectin); CD31 (PECAM-1); CD 41b (IIb); and CD51/CD61 (vitronectin receptor, avb3) (PharMingen, San Diego Calif.), as the expression of these antigens on the cells is associated with platelet activation. After incubation, the cells are washed with TBS and resuspended in 0.25 ml of 1% paraformaldehyde. Samples are stored in the refrigerator at +4° C., and analyzed on a Becton Dickinson FACScan flow cytometer with laser output of 15 mw, excitation at 488 nm, and emission detection at 530±30 nm. The data can be collected and stored in list mode, and then analyzed using CELLQuest® software. FACS procedures are described in detail in, e.g., Gurbel, P. A. et al., J Amer Coll Cardiol 31: 1466-1473 (1998); Serebruany, V. L. et al., Am Heart J 136: 398-405 (1998); Gurbel, P. A. et al., Coron Artery Dis 9: 451-456 (1998) and Serebruany, V. L. et al., Arterioscl Thromb Vasc Biol 19: 153-158 (1999).
(§2) Four cc of blood is collected in a tube, containing 2 cc of acid-citrate-dextrose (ACD; 7.3 g citric acid, 22.0 g sodium citrate.2H2O and 24.5 glucose in 1000 ml distilled water) and mixed well. The buffer, TBS (10 mM Tris, 0.15 M NaCl, pH 7.4) and the following fluorescein isothiocyanate (FITC) conjugated monoclonal antibodies (PharMingen, San Diego, Calif., USA, and DAKO, Calif., USA) are removed from a refrigerator and allowed to warm at room temperature (RT) prior to their use. The non-limiting examples of antibodies that can be used include CD41 (IIb/IIIa), CD31 (PECAM-1), CD62p (P-selectin), and CD51/61 (Vitronectin receptor). For each subject, six amber tubes (1.25 ml) are one Eppendorf tube (1.5 ml) are obtained and marked appropriately 450 μl of TBS buffer is pipetted to the labeled Eppendorf tube. A patient's whole blood tube is inverted gently twice to mix, and 50 μl of whole blood is pipetted to the appropriately labeled Eppendorf tube. The Eppendorf tube is capped and the diluted whole blood is mixed by inverting the Eppendorf tube gently two times, followed by pipetting 50 μl of diluted whole blood to each amber tube. […] The samples are analyzed on a Becton Dickinson FACScan flow cytometer. […]

[3] = system: CD40-ligand (CD154); assay: Flow cytometry, platelet surface expression of CD154
Description: as §1, §2

[4] = system: GP Ib (CD42b); assay: Flow cytometry, platelet surface expression of CD42b
Description: as §1, §2

[5] = system: PAR-1 (WEDE15); assay: Flow cytometry, PAR-1 thrombin receptor expression (WEDE15)
Description: as §1, §2

## CC(C)(Sc1cc(C(C)(C)C)c(O)c(C(C)(C)C)c1)Sc1cc(C(C)(C)C)c(OC(=O)CCC(=O)O)c(C(C)(C)C)c1 [Compound A]
[1]
  collagen-induced aggregation: little or no effect
[1]; preincubation 15 μg/mL
  Conventional platelet aggregation, Collagen 5 μg/ml: 64.95 ± 5.1%
[1]; preincubation 30 μg/mL
  Conventional platelet aggregation, Collagen 5 μg/ml: 65.6 ± 8.7%
[1]; preincubation 60 μg/mL
  Conventional platelet aggregation, Collagen 5 μg/ml: 66.6 ± 6.8%
[1]; preincubation 90 μg/mL
  Conventional platelet aggregation, Collagen 5 μg/ml: 65.5 ± 6.0%
[2]; preincubation 15 μg/mL
  Flow cytometry PAR-1 (SPAN-12): 25.0 ± 4.2
[2]; preincubation 30 μg/mL
  Flow cytometry PAR-1 (SPAN-12): 23.9 ± 3.8
[2]; preincubation 60 μg/mL
  Flow cytometry PAR-1 (SPAN-12): 24.4 ± 2.8
[2]; preincubation 90 μg/mL
  Flow cytometry PAR-1 (SPAN-12): 19.4 ± 3.5
[2]; pretreated samples
  PAR-1 thrombin receptor expression, intact epitope: reduced
[3]
  CD40-ligand (CD154): little or no effect
[3]; preincubation 15 μg/mL
  Flow cytometry CD154: 6.6 ± 1.0
[3]; preincubation 30 μg/mL
  Flow cytometry CD154: 6.7 ± 0.9
[3]; preincubation 60 μg/mL
  Flow cytometry CD154: 6.8 ± 1.1
[3]; preincubation 90 μg/mL
  Flow cytometry CD154: 7.0 ± 1.1
[4]; preincubation 15 μg/mL
  Flow cytometry CD42b: 151.6 ± 11.2
[4]; preincubation 30 μg/mL
  Flow cytometry CD42b: 142.8 ± 11.4
[4]; preincubation 60 μg/mL
  Flow cytometry CD42b: 137.7 ± 8.9
[4]; preincubation 90 μg/mL
  Flow cytometry CD42b: 111.2 ± 11.2
[4]; pretreated samples
  Surface platelet expression of GP Ib (CD42b): decreased
[5]; preincubation 15 μg/mL
  Flow cytometry PAR-1 (WEDE15): 40.6 ± 5.5
[5]; preincubation 30 μg/mL
  Flow cytometry PAR-1 (WEDE15): 36.1 ± 4.7
[5]; preincubation 60 μg/mL
  Flow cytometry PAR-1 (WEDE15): 37.7 ± 5.5
[5]; preincubation 90 μg/mL
  Flow cytometry PAR-1 (WEDE15): 34.3 ± 5.2
[5]; pretreated samples
  PAR-1 thrombin receptor expression, active epitope: reduced
